# Key:
# (GR)10 [1] = experiment: (GR)10 digestion by immobilized proteases stored at 4° C. for over 2 months; type: biochemical; settings: 200 μM (GR)10 in PBS, 5 or 60 minute treatment, FIGS. 8C, 8D
# Description: (GR)10 was prepared in water to a stock concentration of 10 mM then diluted to a concentration of 200 μM in PBS with Ca^2+ and Mg^2+. (GR)10 samples were then treated with agarose resins having immobilized trypsin or elastase, PBS alone, or agarose resin alone, for 5 minutes or 60 minutes at room temperature. Resins were prepared by a routine method as commonly used by persons of ordinary skill in the art (e.g., the binding reaction described in the POROS™ 20 AL, EP and OH Perfusion Chromatography Bulk Media for Activated Affinity Chromatography Product Information Sheet, ThermoFisher Scientific, Waltham, Mass., Pub. No. 8-0031-40-0993, Rev. C., (incorporated herein by reference in its entirety)) and stored at 4° C. for over 2 months.
# 50 μl of treated samples were prepared for LC/MS analysis by adding 2.5 μl of 10% trifluoroacetic acid to each sample and 150 μl of dilution solution (0.5% formic acid in ACN/MeOH [50:50]).
# iCell® motor neurons = experiment: Toxicity of (GR)10, untreated or protease-treated, on iCell motor neurons; type: cell-based; settings: (GR)10 concentrations of 25, 50 and 100 μM
# Description: 200 μM of (GR)10 were diluted in human cerebrospinal fluid (CSF) and 400 μL were applied to each immobilized proteases. The reaction was incubated 5 minutes at room temperature with end-to-end mixing. Columns were spun down 1 minute at 1,000 Xg to recover digested GR dipeptides. Columns were washed with 12 resin volumes of PBS. The procedure was repeated with 60 minutes digestion time. 100 μL of each samples were transferred to a clean tube, flash-frozen and subsequently used for LC/MS quantification of GR repeats of different lengths. The remaining 300 μL of each samples were flash-frozen and used to assess neuron toxicity.
# 300 μL of CSF were applied to each immobilized proteases and incubated 60 minutes at room temperature with end-to-end mixing. Columns were spun down 1 minute at 1,000 Xg to recover treated CSF. Samples were flash-frozen and subsequently used to test neuron toxicity.
# This example describes the reduced toxicity of (GR)10 on in vitro neuronal cells by digestion of (GR)10 with proteases.
# (GR)10 [2] = experiment: Cleavage of (GR)10 by enzymes in solution (PBS with CaCl2 and MgCl2), LC/MS of GR repeats; type: biochemical; settings: (GR)10 50 μM
# Description: • (GR)10 dipeptide (also (GR)8, (GR)6, (GR)4, (GR)2) were synthetized by solid-phase synthesis by CanPeptide; All peptides are uncapped and supplied lyophilized with TFA as counter ions. Purity was always above 95%. • Buffer: PBS buffer containing CaCl2 and MgCl2. • Stock solution of enzyme (e.g., 10 mg/mL) (prepared per manufacturer instructions) in PBS. Activators added as necessary. • Working solution of protein of the desired concentration (e.g., 100 μg/mL) prepared immediately before use by diluting the stock solution (e.g., 5 μL of 10 mg/mL stock solution) in PBS buffer (e.g., in 495 μL of PBS). Exemplary Procedure Using 50 μM Concentrations of (GR)10
# 25 μL of a 100 μM solution of (GR)10 was added to each well of a 96-well plate. 25 μL of a solution of enzyme (two times the desired final enzyme concentration) was added, and the plates were incubated at room temperature. At the specified time points (5 minutes, 10 minutes, 30 minutes, 60 minutes, and 180 minutes) 2.5 μL of a 10% TFA solution were added to stop the reaction. For the time 0 min well, the TFA was added to the well before addition of the enzyme. After last time point, all samples were further diluted with 150 μL of dilution solution. The quenched reaction mixtures were analyzed by LC/MS to determine the concentration of GR repeats of different lengths.
# The chromatography and mass spectrometry conditions utilized are shown in Table 2 and Table 3, respectively.
substance,measurement,setting,value
agarose resin having immobilized elastase: elastase immobilized in-house on agarose resin,(GR)10 proteolytic activity after storage at 4° C. for over 2 months,(GR)10 [1],did not exhibit substantial (GR)10 proteolytic activity
same,Effect of protease treatment of (GR)10 on (GR)10 toxicity,iCell® motor neurons,abrogation of (GR)10 toxicity
Thrombin,(GR)1 concentration,"(GR)10 [2]; enzyme 2.5 μg/mL, 0 min",BLQ
same,(GR)2 concentration,"(GR)10 [2]; enzyme 2.5 μg/mL, 0 min",BLQ
same,(GR)4 concentration,"(GR)10 [2]; enzyme 2.5 μg/mL, 0 min",0.1 µM
same,(GR)6 concentration,"(GR)10 [2]; enzyme 2.5 μg/mL, 0 min",0.1 µM
same,(GR)8 concentration,"(GR)10 [2]; enzyme 2.5 μg/mL, 0 min",1.1 µM
same,(GR)10 concentration,"(GR)10 [2]; enzyme 2.5 μg/mL, 0 min",37.7 µM
same,(GR)1 concentration,"(GR)10 [2]; enzyme 2.5 μg/mL, 5 min",BLQ
same,(GR)2 concentration,"(GR)10 [2]; enzyme 2.5 μg/mL, 5 min",BLQ
same,(GR)4 concentration,"(GR)10 [2]; enzyme 2.5 μg/mL, 5 min",0.1 µM
same,(GR)6 concentration,"(GR)10 [2]; enzyme 2.5 μg/mL, 5 min",0.1 µM
same,(GR)8 concentration,"(GR)10 [2]; enzyme 2.5 μg/mL, 5 min",1.5 µM
same,(GR)10 concentration,"(GR)10 [2]; enzyme 2.5 μg/mL, 5 min",42.9 µM
same,(GR)1 concentration,"(GR)10 [2]; enzyme 2.5 μg/mL, 10 min",BLQ
same,(GR)2 concentration,"(GR)10 [2]; enzyme 2.5 μg/mL, 10 min",BLQ
same,(GR)4 concentration,"(GR)10 [2]; enzyme 2.5 μg/mL, 10 min",0.1 µM
same,(GR)6 concentration,"(GR)10 [2]; enzyme 2.5 μg/mL, 10 min",BLQ
same,(GR)8 concentration,"(GR)10 [2]; enzyme 2.5 μg/mL, 10 min",1.4 µM
same,(GR)10 concentration,"(GR)10 [2]; enzyme 2.5 μg/mL, 10 min",46.7 µM
same,(GR)1 concentration,"(GR)10 [2]; enzyme 2.5 μg/mL, 30 min",BLQ
same,(GR)2 concentration,"(GR)10 [2]; enzyme 2.5 μg/mL, 30 min",0.1 µM
same,(GR)4 concentration,"(GR)10 [2]; enzyme 2.5 μg/mL, 30 min",0.2 µM
same,(GR)6 concentration,"(GR)10 [2]; enzyme 2.5 μg/mL, 30 min",0.1 µM
same,(GR)8 concentration,"(GR)10 [2]; enzyme 2.5 μg/mL, 30 min",1.3 µM
same,(GR)10 concentration,"(GR)10 [2]; enzyme 2.5 μg/mL, 30 min",49.1 µM
same,(GR)1 concentration,"(GR)10 [2]; enzyme 2.5 μg/mL, 60 min",0.1 µM
same,(GR)2 concentration,"(GR)10 [2]; enzyme 2.5 μg/mL, 60 min",0.2 µM
same,(GR)4 concentration,"(GR)10 [2]; enzyme 2.5 μg/mL, 60 min",0.3 µM
same,(GR)6 concentration,"(GR)10 [2]; enzyme 2.5 μg/mL, 60 min",0.1 µM
same,(GR)8 concentration,"(GR)10 [2]; enzyme 2.5 μg/mL, 60 min",1.1 µM
same,(GR)10 concentration,"(GR)10 [2]; enzyme 2.5 μg/mL, 60 min",56.2 µM
same,(GR)1 concentration,"(GR)10 [2]; enzyme 2.5 μg/mL, 120 min",0.2 µM
same,(GR)2 concentration,"(GR)10 [2]; enzyme 2.5 μg/mL, 120 min",0.2 µM
same,(GR)4 concentration,"(GR)10 [2]; enzyme 2.5 μg/mL, 120 min",0.4 µM
same,(GR)6 concentration,"(GR)10 [2]; enzyme 2.5 μg/mL, 120 min",0.3 µM
same,(GR)8 concentration,"(GR)10 [2]; enzyme 2.5 μg/mL, 120 min",BLQ
same,(GR)10 concentration,"(GR)10 [2]; enzyme 2.5 μg/mL, 120 min",45.3 µM
same,(GR)1 concentration,"(GR)10 [2]; enzyme 10 μg/mL, 0 min",BLQ
same,(GR)2 concentration,"(GR)10 [2]; enzyme 10 μg/mL, 0 min",BLQ
same,(GR)4 concentration,"(GR)10 [2]; enzyme 10 μg/mL, 0 min",0.1 µM
same,(GR)6 concentration,"(GR)10 [2]; enzyme 10 μg/mL, 0 min",BLQ
same,(GR)8 concentration,"(GR)10 [2]; enzyme 10 μg/mL, 0 min",1.3 µM
same,(GR)10 concentration,"(GR)10 [2]; enzyme 10 μg/mL, 0 min",52.0 µM
same,(GR)1 concentration,"(GR)10 [2]; enzyme 10 μg/mL, 5 min",0.1 µM
same,(GR)2 concentration,"(GR)10 [2]; enzyme 10 μg/mL, 5 min",0.1 µM
same,(GR)4 concentration,"(GR)10 [2]; enzyme 10 μg/mL, 5 min",0.2 µM
same,(GR)6 concentration,"(GR)10 [2]; enzyme 10 μg/mL, 5 min",BLQ
same,(GR)8 concentration,"(GR)10 [2]; enzyme 10 μg/mL, 5 min",BLQ
same,(GR)10 concentration,"(GR)10 [2]; enzyme 10 μg/mL, 5 min",54.8 µM
same,(GR)1 concentration,"(GR)10 [2]; enzyme 10 μg/mL, 10 min",0.1 µM
same,(GR)2 concentration,"(GR)10 [2]; enzyme 10 μg/mL, 10 min",0.1 µM
same,(GR)4 concentration,"(GR)10 [2]; enzyme 10 μg/mL, 10 min",0.2 µM
same,(GR)6 concentration,"(GR)10 [2]; enzyme 10 μg/mL, 10 min",0.1 µM
same,(GR)8 concentration,"(GR)10 [2]; enzyme 10 μg/mL, 10 min",1.0 µM
same,(GR)10 concentration,"(GR)10 [2]; enzyme 10 μg/mL, 10 min",59.4 µM
same,(GR)1 concentration,"(GR)10 [2]; enzyme 10 μg/mL, 30 min",0.3 µM
same,(GR)2 concentration,"(GR)10 [2]; enzyme 10 μg/mL, 30 min",0.4 µM
same,(GR)4 concentration,"(GR)10 [2]; enzyme 10 μg/mL, 30 min",0.4 µM
same,(GR)6 concentration,"(GR)10 [2]; enzyme 10 μg/mL, 30 min",0.4 µM
same,(GR)8 concentration,"(GR)10 [2]; enzyme 10 μg/mL, 30 min",1.3 µM
same,(GR)10 concentration,"(GR)10 [2]; enzyme 10 μg/mL, 30 min",48.6 µM
same,(GR)1 concentration,"(GR)10 [2]; enzyme 10 μg/mL, 60 min",0.5 µM
same,(GR)2 concentration,"(GR)10 [2]; enzyme 10 μg/mL, 60 min",0.6 µM
same,(GR)4 concentration,"(GR)10 [2]; enzyme 10 μg/mL, 60 min",0.8 µM
same,(GR)6 concentration,"(GR)10 [2]; enzyme 10 μg/mL, 60 min",0.5 µM
same,(GR)8 concentration,"(GR)10 [2]; enzyme 10 μg/mL, 60 min",2.4 µM
same,(GR)10 concentration,"(GR)10 [2]; enzyme 10 μg/mL, 60 min",55.2 µM
same,(GR)1 concentration,"(GR)10 [2]; enzyme 10 μg/mL, 120 min",1.1 µM
same,(GR)2 concentration,"(GR)10 [2]; enzyme 10 μg/mL, 120 min",1.4 µM
same,(GR)4 concentration,"(GR)10 [2]; enzyme 10 μg/mL, 120 min",1.6 µM
same,(GR)6 concentration,"(GR)10 [2]; enzyme 10 μg/mL, 120 min",1.3 µM
same,(GR)8 concentration,"(GR)10 [2]; enzyme 10 μg/mL, 120 min",3.0 µM
same,(GR)10 concentration,"(GR)10 [2]; enzyme 10 μg/mL, 120 min",48.7 µM

# — patent US11419921B2, “Methods of treating neurological disorders” (EnClear Therapies, Inc., priority 2018, dated 2022)
